Measurements published in publication PMC6591251, “Discovery of potent necroptosis inhibitors targeting RIPK1 kinase activity for the treatment of inflammatory disorder and cancer metastasis” (Cell Death & Disease, 2019).

Tests used:
Test in all cases: RBC kinase panel
Type in all cases: biochemical
DYRK1B = molecular target: T1, DYRK1B (Homo sapiens, UniProt Q9Y463); settings: ATP 10 μM, Data1, Data2
T1 construct: purchased Reaction Biology Corporation
Summary of the method: (§1)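 In this selectivity screen, one compound concentration (1 μM) was applied to 369 human kinases, with duplicates and 10 μM ATP in each reaction.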

HIPK3 = molecular target: T2, HIPK3 (Homo sapiens, UniProt Q9H422); settings: ATP 10 μM, Data1, Data2
T2 construct: purchased Reaction Biology Corporation
Summary of the method: as §1

TRKC = molecular target: T3, TRKC (Homo sapiens, UniProt Q16288)
T3 construct: purchased Reaction Biology Corporation
Summary of the method: as §1

EPHB2 = molecular target: T4, EPHB2 (Homo sapiens, UniProt P29323); settings: ATP 10 μM, Data1, Data2
T4 construct: purchased Reaction Biology Corporation
Summary of the method: as §1

MNK1 = molecular target: T5, MNK1 (Homo sapiens, UniProt Q9BUB5); settings: ATP 10 μM, Data1, Data2
T5 construct: purchased Reaction Biology Corporation
Summary of the method: as §1

CK1g1 = molecular target: T6, CK1g1 (Homo sapiens, UniProt Q9HCP0); settings: ATP 10 μM, Data1, Data2
T6 construct: purchased Reaction Biology Corporation
Summary of the method: as §1

MYO3A = molecular target: T7, MYO3A (Homo sapiens, UniProt Q8NEV4); settings: ATP 10 μM, Data1, Data2
T7 construct: purchased Reaction Biology Corporation
Summary of the method: as §1

FAK/PTK2 = molecular target: T8, FAK/PTK2 (Homo sapiens, UniProt Q05397); settings: ATP 10 μM, Data1, Data2
T8 construct: purchased Reaction Biology Corporation
Summary of the method: as §1

PHKg1 = molecular target: T9, PHKg1 (Homo sapiens, UniProt Q16816); settings: ATP 10 μM, Data1, Data2
T9 construct: purchased Reaction Biology Corporation
Summary of the method: as §1

CDK17/cyclin Y (PCTK2) = molecular target: T10, CDK17/cyclin Y (PCTK2) (Homo sapiens, UniProt Q00537); settings: ATP 10 μM, Data1, Data2
T10 construct: purchased Reaction Biology Corporation
Summary of the method: as §1

TYK1/LTK = molecular target: T11, TYK1/LTK (Homo sapiens, UniProt P29376); settings: ATP 10 μM, Data1, Data2
T11 construct: purchased Reaction Biology Corporation
Summary of the method: as §1

PDK1/PDPK1 = molecular target: T12, PDK1/PDPK1 (Homo sapiens, UniProt O15530); settings: ATP 10 μM, Data1, Data2
T12 construct: purchased Reaction Biology Corporation
Summary of the method: as §1

LKB1 = molecular target: T13, LKB1 (Homo sapiens, UniProt Q15831); settings: ATP 10 μM, Data1, Data2
T13 construct: purchased Reaction Biology Corporation
Summary of the method: as §1

MLCK/MYLK = molecular target: T14, MLCK/MYLK (Homo sapiens, UniProt Q15746); settings: ATP 10 μM, Data1, Data2
T14 construct: purchased Reaction Biology Corporation
Summary of the method: as §1

MKK6 = molecular target: T15, MKK6 (Homo sapiens, UniProt P52564); settings: ATP 10 μM, Data1, Data2
T15 construct: purchased Reaction Biology Corporation
Summary of the method: as §1

RSK1 = molecular target: T16, RSK1 (Homo sapiens, UniProt Q15418); settings: ATP 10 μM, Data1, Data2
T16 construct: purchased Reaction Biology Corporation
Summary of the method: as §1

BRSK1 = molecular target: T17, BRSK1 (Homo sapiens, UniProt Q8TDC3); settings: ATP 10 μM, Data1, Data2
T17 construct: purchased Reaction Biology Corporation
Summary of the method: as §1

AKT3 = molecular target: T18, AKT3 (Homo sapiens, UniProt Q9Y243); settings: ATP 10 μM, Data1, Data2
T18 construct: purchased Reaction Biology Corporation
Summary of the method: as §1

ALK1/ACVRL1 = molecular target: T19, ALK1/ACVRL1 (Homo sapiens, UniProt P37023); settings: ATP 10 μM, Data1, Data2
T19 construct: purchased Reaction Biology Corporation
Summary of the method: as §1

SIK2 = molecular target: T20, SIK2 (Homo sapiens, UniProt Q9H0K1); settings: ATP 10 μM, Data1, Data2
T20 construct: purchased Reaction Biology Corporation
Summary of the method: as §1

CAMK2g = molecular target: T21, CAMK2g (Homo sapiens, UniProt Q13555); settings: ATP 10 μM, Data1, Data2
T21 construct: purchased Reaction Biology Corporation
Summary of the method: as §1

ALK4/ACVR1B = molecular target: T22, ALK4/ACVR1B (Homo sapiens, UniProt P36896); settings: ATP 10 μM, Data1, Data2
T22 construct: purchased Reaction Biology Corporation
Summary of the method: as §1

ROCK2 = molecular target: T23, ROCK2 (Homo sapiens, UniProt O75116); settings: ATP 10 μM, Data1, Data2
T23 construct: purchased Reaction Biology Corporation
Summary of the method: as §1

TAK1 = molecular target: T24, TAK1 (Homo sapiens, UniProt O43318); settings: ATP 10 μM, Data1, Data2
T24 construct: purchased Reaction Biology Corporation
Summary of the method: as §1

CAMK1b = molecular target: T25, CAMK1b (Homo sapiens, UniProt Q6P2M8); settings: ATP 10 μM, Data1, Data2
T25 construct: purchased Reaction Biology Corporation
Summary of the method: as §1

STK32B/YANK2 = molecular target: T26, STK32B/YANK2 (Homo sapiens, UniProt Q9NY57); settings: ATP 10 μM, Data1, Data2
T26 construct: purchased Reaction Biology Corporation
Summary of the method: as §1

DYRK4 = molecular target: T27, DYRK4 (Homo sapiens, UniProt Q9NR20); settings: ATP 10 μM, Data1, Data2
T27 construct: purchased Reaction Biology Corporation
Summary of the method: as §1

PAK6 = molecular target: T28, PAK6 (Homo sapiens, UniProt Q9NQU5); settings: ATP 10 μM, Data1, Data2
T28 construct: purchased Reaction Biology Corporation
Summary of the method: as §1

JAK3 = molecular target: T29, JAK3 (Homo sapiens, UniProt P52333); settings: ATP 10 μM, Data1, Data2
T29 construct: purchased Reaction Biology Corporation
Summary of the method: as §1

SNRK = molecular target: T30, SNRK (Homo sapiens, UniProt Q9NRH2); settings: ATP 10 μM, Data1, Data2
T30 construct: purchased Reaction Biology Corporation
Summary of the method: as §1

PIM3 = molecular target: T31, PIM3 (Homo sapiens, UniProt Q86V86); settings: ATP 10 μM, Data1, Data2
T31 construct: purchased Reaction Biology Corporation
Summary of the method: as §1

c-Src = molecular target: T32, c-Src (Homo sapiens, UniProt P12931); settings: ATP 10 μM, Data1, Data2
T32 construct: purchased Reaction Biology Corporation
Summary of the method: as §1

CK1epsilon = molecular target: T33, CK1epsilon (Homo sapiens, UniProt P49674); settings: ATP 10 μM, Data1, Data2
T33 construct: purchased Reaction Biology Corporation
Summary of the method: as §1

T3 sequence (Q16288 32-839): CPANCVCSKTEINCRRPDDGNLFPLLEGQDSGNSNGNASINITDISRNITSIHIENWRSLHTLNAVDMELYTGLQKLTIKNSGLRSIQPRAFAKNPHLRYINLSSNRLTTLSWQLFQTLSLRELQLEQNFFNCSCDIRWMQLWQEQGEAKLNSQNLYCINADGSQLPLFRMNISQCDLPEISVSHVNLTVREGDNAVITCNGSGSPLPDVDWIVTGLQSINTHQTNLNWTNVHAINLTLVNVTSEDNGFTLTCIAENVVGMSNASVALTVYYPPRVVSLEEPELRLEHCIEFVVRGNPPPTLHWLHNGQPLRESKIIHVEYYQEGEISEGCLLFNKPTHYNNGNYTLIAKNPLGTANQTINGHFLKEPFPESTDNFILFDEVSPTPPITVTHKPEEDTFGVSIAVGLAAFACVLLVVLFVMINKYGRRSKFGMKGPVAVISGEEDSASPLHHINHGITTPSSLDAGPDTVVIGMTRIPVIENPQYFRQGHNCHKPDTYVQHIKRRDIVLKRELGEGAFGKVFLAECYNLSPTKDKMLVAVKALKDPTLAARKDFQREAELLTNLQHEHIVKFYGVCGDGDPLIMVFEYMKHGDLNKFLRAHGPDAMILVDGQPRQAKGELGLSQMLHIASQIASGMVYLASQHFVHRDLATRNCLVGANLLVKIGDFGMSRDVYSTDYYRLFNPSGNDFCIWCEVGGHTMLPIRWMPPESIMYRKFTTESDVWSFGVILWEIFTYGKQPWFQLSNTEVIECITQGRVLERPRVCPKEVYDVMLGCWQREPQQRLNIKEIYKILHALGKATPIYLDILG
T24 sequence (O43318 1-303 limits assumed): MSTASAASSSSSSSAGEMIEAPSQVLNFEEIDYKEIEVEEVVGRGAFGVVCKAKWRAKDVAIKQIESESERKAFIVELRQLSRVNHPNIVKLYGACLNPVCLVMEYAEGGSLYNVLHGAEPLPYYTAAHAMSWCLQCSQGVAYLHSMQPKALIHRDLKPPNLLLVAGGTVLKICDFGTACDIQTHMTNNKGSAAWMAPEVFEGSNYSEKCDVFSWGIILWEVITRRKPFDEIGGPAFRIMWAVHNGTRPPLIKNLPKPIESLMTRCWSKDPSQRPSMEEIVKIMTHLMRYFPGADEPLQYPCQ
T24 sequence (Q15750 437-504 partner limits assumed): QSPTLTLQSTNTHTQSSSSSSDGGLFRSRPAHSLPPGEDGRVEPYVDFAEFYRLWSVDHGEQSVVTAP
T10 sequence (Q00537 whole entry): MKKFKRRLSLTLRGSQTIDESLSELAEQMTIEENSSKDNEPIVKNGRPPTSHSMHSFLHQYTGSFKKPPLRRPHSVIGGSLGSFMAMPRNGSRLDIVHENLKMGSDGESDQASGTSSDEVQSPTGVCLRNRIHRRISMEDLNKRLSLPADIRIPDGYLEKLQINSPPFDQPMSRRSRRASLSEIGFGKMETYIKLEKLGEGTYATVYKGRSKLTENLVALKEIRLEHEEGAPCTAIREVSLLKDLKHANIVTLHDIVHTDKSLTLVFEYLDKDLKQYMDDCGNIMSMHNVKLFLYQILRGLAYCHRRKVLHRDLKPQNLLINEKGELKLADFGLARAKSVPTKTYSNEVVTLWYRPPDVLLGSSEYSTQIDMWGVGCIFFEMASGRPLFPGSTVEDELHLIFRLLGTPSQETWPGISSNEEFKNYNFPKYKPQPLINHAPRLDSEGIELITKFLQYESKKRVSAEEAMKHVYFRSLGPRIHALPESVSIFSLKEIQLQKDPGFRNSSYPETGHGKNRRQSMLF
T10 sequence (Q8ND76 whole entry partner): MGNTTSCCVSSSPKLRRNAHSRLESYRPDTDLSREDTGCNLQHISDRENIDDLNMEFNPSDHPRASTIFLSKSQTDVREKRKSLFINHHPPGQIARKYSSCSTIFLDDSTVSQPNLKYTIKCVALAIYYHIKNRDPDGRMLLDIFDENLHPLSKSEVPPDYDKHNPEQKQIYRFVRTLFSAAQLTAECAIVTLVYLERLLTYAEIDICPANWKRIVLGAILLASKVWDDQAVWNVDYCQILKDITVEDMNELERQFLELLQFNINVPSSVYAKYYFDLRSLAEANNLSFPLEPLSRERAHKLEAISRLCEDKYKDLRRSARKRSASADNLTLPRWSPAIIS
T6 sequence (Q9HCP0 whole entry): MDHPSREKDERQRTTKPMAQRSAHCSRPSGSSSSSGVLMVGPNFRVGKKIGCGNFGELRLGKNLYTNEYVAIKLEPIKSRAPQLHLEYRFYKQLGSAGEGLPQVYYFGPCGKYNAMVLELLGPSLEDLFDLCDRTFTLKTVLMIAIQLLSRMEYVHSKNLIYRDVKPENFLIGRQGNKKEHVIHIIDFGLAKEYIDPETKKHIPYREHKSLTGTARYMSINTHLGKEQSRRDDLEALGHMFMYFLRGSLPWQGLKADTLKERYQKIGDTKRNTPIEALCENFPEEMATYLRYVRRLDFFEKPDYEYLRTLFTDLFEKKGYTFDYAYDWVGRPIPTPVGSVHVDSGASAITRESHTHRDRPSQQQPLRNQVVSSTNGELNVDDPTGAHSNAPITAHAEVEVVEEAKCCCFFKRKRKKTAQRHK
T22 sequence (P36896 24-505): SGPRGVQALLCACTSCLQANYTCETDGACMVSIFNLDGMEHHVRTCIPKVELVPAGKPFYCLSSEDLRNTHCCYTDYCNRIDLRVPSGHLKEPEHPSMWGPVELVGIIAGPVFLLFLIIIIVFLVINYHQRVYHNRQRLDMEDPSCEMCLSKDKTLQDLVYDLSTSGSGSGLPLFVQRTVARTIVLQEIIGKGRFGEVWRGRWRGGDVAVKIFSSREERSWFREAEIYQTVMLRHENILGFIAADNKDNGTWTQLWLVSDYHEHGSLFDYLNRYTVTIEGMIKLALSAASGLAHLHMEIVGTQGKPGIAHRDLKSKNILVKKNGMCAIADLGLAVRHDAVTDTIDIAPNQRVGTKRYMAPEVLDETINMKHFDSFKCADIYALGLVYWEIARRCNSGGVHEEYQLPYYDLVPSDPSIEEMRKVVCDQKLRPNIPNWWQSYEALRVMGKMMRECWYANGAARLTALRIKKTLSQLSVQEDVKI
T33 sequence (P49674 whole entry): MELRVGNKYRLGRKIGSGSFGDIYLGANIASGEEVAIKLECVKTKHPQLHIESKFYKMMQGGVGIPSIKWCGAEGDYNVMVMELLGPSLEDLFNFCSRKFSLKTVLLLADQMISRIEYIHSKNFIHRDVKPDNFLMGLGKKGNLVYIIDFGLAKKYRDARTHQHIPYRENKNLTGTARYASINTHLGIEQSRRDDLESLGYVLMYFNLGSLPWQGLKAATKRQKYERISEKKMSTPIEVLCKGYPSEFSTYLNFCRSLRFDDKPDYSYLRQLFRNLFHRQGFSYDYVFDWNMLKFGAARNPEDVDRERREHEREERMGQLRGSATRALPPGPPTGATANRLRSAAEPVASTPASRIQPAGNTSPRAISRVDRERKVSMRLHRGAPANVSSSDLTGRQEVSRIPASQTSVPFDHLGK
T4 sequence (P29323 19-1055): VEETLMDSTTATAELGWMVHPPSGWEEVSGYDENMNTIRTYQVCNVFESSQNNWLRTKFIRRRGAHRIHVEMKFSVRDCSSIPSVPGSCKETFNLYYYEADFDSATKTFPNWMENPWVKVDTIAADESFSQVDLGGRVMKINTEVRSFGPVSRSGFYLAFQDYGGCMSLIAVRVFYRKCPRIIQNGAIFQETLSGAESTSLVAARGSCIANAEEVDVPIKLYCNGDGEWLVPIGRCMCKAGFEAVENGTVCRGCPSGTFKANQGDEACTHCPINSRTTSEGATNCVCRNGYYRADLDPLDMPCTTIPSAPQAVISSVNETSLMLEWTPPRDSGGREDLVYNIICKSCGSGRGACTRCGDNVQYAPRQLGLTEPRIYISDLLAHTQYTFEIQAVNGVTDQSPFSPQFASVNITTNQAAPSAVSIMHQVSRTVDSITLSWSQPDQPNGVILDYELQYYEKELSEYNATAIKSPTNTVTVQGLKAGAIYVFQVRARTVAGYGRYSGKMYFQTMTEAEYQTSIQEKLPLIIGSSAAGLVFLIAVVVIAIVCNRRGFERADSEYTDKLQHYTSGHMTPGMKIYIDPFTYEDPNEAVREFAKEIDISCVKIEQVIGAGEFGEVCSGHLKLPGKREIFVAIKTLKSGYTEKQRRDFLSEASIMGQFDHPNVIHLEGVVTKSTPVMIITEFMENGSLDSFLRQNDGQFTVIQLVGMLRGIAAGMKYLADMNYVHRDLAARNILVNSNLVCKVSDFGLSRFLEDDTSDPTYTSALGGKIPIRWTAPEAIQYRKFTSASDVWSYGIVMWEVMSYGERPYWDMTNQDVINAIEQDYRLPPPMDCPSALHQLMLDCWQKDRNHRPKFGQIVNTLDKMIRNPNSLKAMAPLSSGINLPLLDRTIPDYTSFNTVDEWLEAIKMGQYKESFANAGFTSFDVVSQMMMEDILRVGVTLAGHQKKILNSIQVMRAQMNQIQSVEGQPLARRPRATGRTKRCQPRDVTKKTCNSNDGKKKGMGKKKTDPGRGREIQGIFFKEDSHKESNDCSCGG
T9 sequence (Q16816 whole entry): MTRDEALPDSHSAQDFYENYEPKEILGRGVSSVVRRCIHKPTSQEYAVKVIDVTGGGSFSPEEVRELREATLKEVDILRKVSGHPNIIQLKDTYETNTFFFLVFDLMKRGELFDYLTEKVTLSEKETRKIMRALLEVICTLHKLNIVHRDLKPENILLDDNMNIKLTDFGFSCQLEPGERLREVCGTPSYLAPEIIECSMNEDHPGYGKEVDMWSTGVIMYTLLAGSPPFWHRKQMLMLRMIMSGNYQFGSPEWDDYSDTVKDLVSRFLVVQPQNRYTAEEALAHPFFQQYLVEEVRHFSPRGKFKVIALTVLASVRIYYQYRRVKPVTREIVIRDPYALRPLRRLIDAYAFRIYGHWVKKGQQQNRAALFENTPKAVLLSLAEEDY

Compound: CC(=O)Nc1nc2ccc(-c3cnc(C)c(NC(=O)OC4CCCCC4)c3)cc2s1 [PK68, cyclohexyl (5-(2-acetamidobenzo[d]thiazol-6-yl)-2-methylpyridin-3-yl)carbamate]
- Activity% (DYRK1B; 1 μM): 97.55%
- activity at 1 µM (DYRK1B): 99.4%
- Activity% (HIPK3; 1 μM): 63.99%
- activity at 1 µM (HIPK3): 66.4%
- Activity% (TRKC; 1 μM, ATP 10 μM, Data1, Data2): 33.96%
- activity at 1 µM (TRKC; 1 μM, ATP 10 μM, Data1, Data2): 35.4%
- inhibition at 1 µM (TRKC; at 1000 nM): > 50%
- Activity% (EPHB2; 1 μM): 101.30%
- activity at 1 µM (EPHB2): 102%
- Activity% (MNK1; 1 μM): 99.13%
- activity at 1 µM (MNK1): 100%
- Activity% (CK1g1; 1 μM): 89.50%
- activity at 1 µM (CK1g1): 90.7%
- Activity% (MYO3A; 1 μM): 91.22%
- activity at 1 µM (MYO3A): 92.2%
- Activity% (FAK/PTK2; 1 μM): 96.95%
- activity at 1 µM (FAK/PTK2): 98%
- Activity% (PHKg1; 1 μM): 93.46%
- activity at 1 µM (PHKg1): 93.6%
- Activity% (CDK17/cyclin Y (PCTK2); 1 μM): 77.31%
- activity at 1 µM (CDK17/cyclin Y (PCTK2)): 79%
- Activity% (TYK1/LTK; 1 μM): 98.39%
- activity at 1 µM (TYK1/LTK): 99.8%
- Activity% (PDK1/PDPK1; 1 μM): 90.43%
- activity at 1 µM (PDK1/PDPK1): 92.7%
- Activity% (LKB1; 1 μM): 102.07%
- activity at 1 µM (LKB1): 103%
- Activity% (MLCK/MYLK; 1 μM): 97.43%
- activity at 1 µM (MLCK/MYLK): 99.7%
- Activity% (MKK6; 1 μM): 107.08%
- activity at 1 µM (MKK6): 109%
- Activity% (RSK1; 1 μM): 98.15%
- activity at 1 µM (RSK1): 100%
- Activity% (BRSK1; 1 μM): 101.25%
- activity at 1 µM (BRSK1): 102%
- Activity% (AKT3; 1 μM): 98.71%
- activity at 1 µM (AKT3): 100%
- Activity% (ALK1/ACVRL1; 1 μM): 91.76%
- activity at 1 µM (ALK1/ACVRL1): 95.2%
- Activity% (SIK2; 1 μM): 94.58%
- activity at 1 µM (SIK2): 95.5%
- Activity% (CAMK2g; 1 μM): 105.45%
- activity at 1 µM (CAMK2g): 107%
- Activity% (ALK4/ACVR1B; 1 μM): 95.17%
- activity at 1 µM (ALK4/ACVR1B): 95.5%
- Activity% (ROCK2; 1 μM): 95.49%
- activity at 1 µM (ROCK2): 95.5%
- Activity% (TAK1; 1 μM): 96.74%
- activity at 1 µM (TAK1): 97.5%
- Activity% (CAMK1b; 1 μM): 99.49%
- activity at 1 µM (CAMK1b): 101%
- Activity% (STK32B/YANK2; 1 μM): 106.39%
- activity at 1 µM (STK32B/YANK2): 107%
- Activity% (DYRK4; 1 μM): 102.24%
- activity at 1 µM (DYRK4): 102%
- Activity% (PAK6; 1 μM): 92.62%
- activity at 1 µM (PAK6): 93.6%
- Activity% (JAK3; 1 μM): 92.17%
- activity at 1 µM (JAK3): 92.9%
- Activity% (SNRK; 1 μM): 90.23%
- activity at 1 µM (SNRK): 94.9%
- Activity% (PIM3; 1 μM): 101.62%
- activity at 1 µM (PIM3): 104%
- Activity% (c-Src; 1 μM): 95.17%
- activity at 1 µM (c-Src): 96.3%
- Activity% (CK1epsilon; 1 μM): 74.35%
- activity at 1 µM (CK1epsilon): 78.2%
